Measurements reported in PubChem BioAssay AID1259407 (Chemical Carcinogenesis Research Information System (CCRIS), 2018).
The source made the active and inactive calls. The rule behind the calls is not given here.

Test system: CCRIS mutagenicity, Ames/micronucleus/aberration tests
Assay: CCRIS mutagenicity studies

Structure (SMILES): CN(C)N=O
- mutagenic call (Test System: AMES SALMONELLA TYPHIMURIUM, Strain/Indicator: TA1535ER, Metabolic Activation: NONE, Method: STANDARD PLATE): inactive; negative
- mutagenic call (Test System: AMES SALMONELLA TYPHIMURIUM, Strain/Indicator: TA1975, Metabolic Activation: RAT, LIVER, S-9, AROCLOR 1254, Method: PREINCUBATION): active; positive
- mutagenic call (Test System: AMES SALMONELLA TYPHIMURIUM, Strain/Indicator: TA2410, Metabolic Activation: NONE, Method: HOST-MEDIATED): active; positive
- mutagenic call (Test System: AMES SALMONELLA TYPHIMURIUM, Strain/Indicator: TA2638, Metabolic Activation: NONE, Method: PREINCUBATION): active; positive
- mutagenic call (Test System: AMES SALMONELLA TYPHIMURIUM, Strain/Indicator: TA2659, Metabolic Activation: NONE, Method: PREINCUBATION): inactive; negative
- mutagenic call (Test System: AMES SALMONELLA TYPHIMURIUM, Strain/Indicator: TA2678, Metabolic Activation: NONE, Method: HOST-MEDIATED): active; positive
- mutagenic call (Test System: AMES SALMONELLA TYPHIMURIUM, Strain/Indicator: YG7100, Metabolic Activation: S-9, Method: PREINCUBATION): active; positive
- mutagenic call (Test System: AMES SALMONELLA TYPHIMURIUM, Strain/Indicator: YG7104, Metabolic Activation: RAT LIVER S-9, ETHANOL (4%), Method: PREINCUBATION): active; positive
- mutagenic call (Test System: AMES SALMONELLA TYPHIMURIUM, Strain/Indicator: YG7104, Metabolic Activation: S-9, Method: PREINCUBATION): active; positive
- mutagenic call (Test System: AMES SALMONELLA TYPHIMURIUM, Strain/Indicator: YG7104ER, Metabolic Activation: NONE, Method: STANDARD PLATE): active; positive
- mutagenic call (Test System: AMES SALMONELLA TYPHIMURIUM, Strain/Indicator: YG7108, Metabolic Activation: RAT LIVER S-9, ETHANOL (4%), Method: PREINCUBATION): active; positive
- mutagenic call (Test System: AMES SALMONELLA TYPHIMURIUM, Strain/Indicator: YG7108, Metabolic Activation: S-9, Method: PREINCUBATION): active; positive
- mutagenic call (Test System: AMES SALMONELLA TYPHIMURIUM, Strain/Indicator: YG7108E, Metabolic Activation: NONE, Method: STANDARD PLATE): inactive; negative
- mutagenic call (Test System: AMES SALMONELLA TYPHIMURIUM, Strain/Indicator: YG7108ER, Metabolic Activation: NONE, Method: STANDARD PLATE): active; positive
- mutagenic call (Test System: AMES SALMONELLA TYPHIMURIUM, Strain/Indicator: YG7108R, Metabolic Activation: NONE, Method: STANDARD PLATE): inactive; negative
- mutagenic call (Test System: AMES SALMONELLA TYPHIMURIUM, Strain/Indicator: YG7112, Metabolic Activation: S-9, Method: PREINCUBATION): active; positive
- mutagenic call (Test System: AMES SALMONELLA TYPHIMURIUM, Strain/Indicator: YG7113, Metabolic Activation: S-9, Method: PREINCUBATION): active; positive
- mutagenic call (Test System: AMES SALMONELLA TYPHIMURIUM, Strain/Indicator: YG7119, Metabolic Activation: S-9, Method: PREINCUBATION): inactive; negative
- mutagenic call (Test System: CHINESE HAMSTER V-79, Strain/Indicator: V-79 (HPRT)/6-THIOGUANINE, Metabolic Activation: RAT, HEPATOCYTES): active; positive
- mutagenic call (Test System: CHINESE HAMSTER V-79, Strain/Indicator: V-79 (HPRT)/6-THIOGUANINE, Metabolic Activation: RAT, HEPATOMA, H4IIE CELLS): active; positive
- mutagenic call (Test System: CHINESE HAMSTER V-79, Strain/Indicator: V-79 (HPRT)/6-THIOGUANINE, Metabolic Activation: RAT, LIVER, S-9, AROCLOR 1254): active; positive
- mutagenic call (Test System: CHINESE HAMSTER V-79, Strain/Indicator: V-79/6-THIOGUANINE, Metabolic Activation: NONE, Method: STANDARD PLATE): inactive; negative
- mutagenic call (Test System: CHINESE HAMSTER V-79, Strain/Indicator: V-79/6-THIOGUANINE, Metabolic Activation: RAT, HEPATOCYTES, BUTYLATED HYDROXYANISOLE, Method: STANDARD PLATE): active; positive
- mutagenic call (Test System: CHINESE HAMSTER V-79, Strain/Indicator: V-79/6-THIOGUANINE, Metabolic Activation: RAT, HEPATOCYTES, Method: STANDARD PLATE): active; positive
- mutagenic call (Test System: CHINESE HAMSTER V-79, Strain/Indicator: V-79/6-THIOGUANINE, Metabolic Activation: RAT, LIVER, S-15, PHENOBARBITAL, Method: STANDARD PLATE): active; positive
- mutagenic call (Test System: CHINESE HAMSTER V-79, Strain/Indicator: V-79/8-AZAGUANINE, Metabolic Activation: RAT, LIVER, S-15, PHENOBARBITAL, Method: STANDARD PLATE): active; positive
- mutagenic call (Test System: CHINESE HAMSTER V-79, Strain/Indicator: V-79/OUABAIN, Metabolic Activation: CELL-MEDIATED, Method: STANDARD PLATE): active; positive
- mutagenic call (Test System: CHINESE HAMSTER V-79, Strain/Indicator: V-79/OUABAIN, Metabolic Activation: FREE MICROSOMES M, LIVER, Method: STANDARD PLATE): active; positive
- mutagenic call (Test System: CHINESE HAMSTER V-79, Strain/Indicator: V-79/OUABAIN, Metabolic Activation: HAMSTER, HEPATOCYTES, Method: CELL-MEDIATED): active; positive
- mutagenic call (Test System: CHINESE HAMSTER V-79, Strain/Indicator: V-79/OUABAIN, Metabolic Activation: NONE, Method: STANDARD PLATE): inactive; negative
